Experiments:
Type in all cases: physicochemical
[1] = Irinotecan loading capacity of microspheres (depletion method, UV 369 nm); details: microspheres 500-700 μm, irinotecan solution 20 mg/ml, at least 4 hours
Procedure: Irinotecan-loading content and loading efficacy was determined using microspheres, 500-700 μm. A bead slurry was mixed with irinotecan solution (20 mg/ml) in calculated amount, rotating-mixed for at least 4 hours. The solution was measured with UV at 369 nm to determine the irinotecan concentration and the drug-loading in beads (by depletion method). […] Above this the loading efficacy dropped remarkably, indicating saturation of the beads.

[2] = Elution from irinotecan lyophilised microspheres into PBS buffer
Source text: Irinotecan was eluted from lyophilised microspheres with different loadings of camptothecin into PBS buffer. The elution rate slowed down after lyophilisation when compared with the non-lyophilised samples. […] Drug-loaded beads were lyophilised to removed water and sterilised using gamma irradiation.

[3] = Elution of doxorubicin from high AMPS microspheres into distilled water
Procedure: High AMPS microspheres were loaded with various concentrations of doxorubicin and the microspheres eluted into 250 ml of distilled water (FIG. 2).
For the higher drug loadings, a burst effect is evident in the first few minutes, followed by a prolonged period of slower release. It is surmised that the burst represents the free drug eluting from the water held within the microspheres, whereas the prolonged elution results from the drug that is “bound” into the spheres essentially by ionic interaction between the charged groups. For the highest loading of drug (from the 20 mg/ml loading solution), the burst effect represents some 45% of the total drug loading of the spheres, the remainder taking several days to completely elute from the carrier. Studies have shown that 100% of the drug is eventually eluted from the microspheres. Drug-loaded beads were lyophilised to remove water and sterilised using gamma irradiation.

[4] = Maximum loading capacity of DEB with Doxorubicin and Mitoxantrone; details: beads 700-900 μm
Procedure: Microspheres of the invention were prepared as described in the Reference Example. Sample beads of the size range 700-900 μm were loaded by immersing the beads in aqueous solutions of Doxorubicin HCl (Dox) and Mitoxantrone 2HCl (Mitox). Loading was monitored using UV-visible spectroscopy at the respective wavelengths for absorption maxima of the two drugs (483 nm and 660 nm respectively). The beads were sized and imaged using an Olympus BX50F4 microscope with a Colorview III camcorder. Compressibility was measured using an Instron 4411 with a 50 N load cell.

[5] = AQ4 and AQ4N loading profile and maximum loading capacity of DC Bead; details: DC Bead 500-700 μm; AQ4N target loading 60 mg/mL, 20 hr

| concentration range in which irinotecan content in beads increased linearly with loading amount (above it saturation of the beads) [1] | elution rate after lyophilisation compared with non-lyophilised samples [2] | drug eluting at 3 hours ([3]; 133.2 μg/ml and 2 mg/ml loaded microspheres, 250 ml distilled water) | drug eventually eluted from the microspheres ([3]; high AMPS microspheres) [%] | burst effect as share of the total drug loading of the spheres ([3]; high AMPS microspheres, highest loading (20 mg/ml loading solution), 250 ml distilled water, first few minutes) [%] | maximum loading capacity in DC Bead [5] [mg/mL] | SMILES | Average (mg) of drug per mL of beads (average maximum capacity of DEB) [4] | Mols of loaded drug/Mols of available binding sites [4] | Average (mg) of drug per mL of beads (average maximum capacity of DEB) ([4]; listed as Mitox) |
| --- | --- | --- | --- | --- | --- | --- | --- | --- | --- |
| below 50 mg/ml | slowed down | – | – | – | – | CCc1c2c(nc3ccc(OC(=O)N4CCC(N5CCCCC5)CC4)cc13)-c1cc3c(c(=O)n1C2)COC(=O)[C@]3(O)CC [Irinotecan] | – | – | – |
| – | – | below the detection limit | 100 | ~45 | 40 | COc1cccc2c1C(=O)c1c(O)c3c(c(O)c1C2=O)C[C@@](O)(C(=O)CO)C[C@@H]3O[C@H]1C[C@H](N)[C@H](O)[C@H](C)O1 [Doxorubicin] | 39.0 mg per mL of beads | 0.9 | – |
| – | – | – | – | – | – | O=C1c2c(O)ccc(O)c2C(=O)c2c(NCCNCCO)ccc(NCCNCCO)c21 [Mitoxantrone] | 20.0 mg per mL of beads | 0.5 | 20 mg per mL of beads |
